Measurements published in ChEMBL document CHEMBL1649228, “In vivo antibacterial activity of vertilmicin, a new aminoglycoside antibiotic” (2009).
Values after ≈ are worked out from the molar mass of the structure shown.

Legend:
Klebsiella pneumoniae [1] = assay: Antimicrobial activity against Klebsiella pneumoniae 935 infected in CD-1 ICR mouse using 3 X 10^5 CFU inoculum; type: functional
Escherichia coli [2] = assay: Antimicrobial activity against Escherichia coli 1515 infected in CD-1 ICR mouse using 2.4 X 10^6 CFU inoculum; type: functional
Escherichia coli [3] = assay: Antimicrobial activity against Escherichia coli 9612 infected in CD-1 ICR mouse assessed as decrease in bacterial load in kidney at 4.32 mg/kg, sc after 72 hrs (reference value: 4.45 +/- 0.37 log10CFU/g); type: functional; details: route subcutaneous
Klebsiella pneumoniae [4] = assay: microbe, parasite or virus in culture; details: 967
Description: Antimicrobial activity against Klebsiella pneumoniae 967 using 2.6 X 10^5 CFU inoculum by agar dilution method

Enterococcus faecalis [5] = assay: Antimicrobial activity against Enterococcus faecalis ATCC 29212 using 2.8 X 10^7 by agar dilution method; type: functional
Staphylococcus aureus [6] = assay: Antimicrobial activity against methicillin-resistant Staphylococcus aureus 9344 infected in CD-1 ICR mouse using 2.5 X 10^5 CFU inoculum; type: functional
Staphylococcus aureus [7] = assay: Antimicrobial activity against methicillin-susceptible Staphylococcus aureus ATCC 29213 infected in CD-1 ICR mouse using 1.5 X 10^5 CFU inoculum; type: functional
Escherichia coli [8] = assay: Antimicrobial activity against Escherichia coli ATCC 25922 infected in CD-1 ICR mouse using 1 X 10^5 CFU inoculum; type: functional
Staphylococcus aureus [9] = assay: Antimicrobial activity against methicillin-resistant Staphylococcus aureus 9344 using 2.5 X 10^5 CFU inoculum by agar dilution method; type: functional
Escherichia coli [10] = assay: Antimicrobial activity against Escherichia coli 9612 infected in new Zealand white rabbit with skin burn injury assessed as decrease in bacterial load in burn wound at 2 mg/ml after 24 hrs (reference value: 8.57 +/- 0.35 log10CFU/g); type: functional
Staphylococcus aureus [11] = assay: Antimicrobial activity against methicillin-susceptible Staphylococcus aureus 15 using 2.5 X 10^5 CFU inoculum by agar dilution method; type: functional
Escherichia coli [12] = assay: Antimicrobial activity against Escherichia coli 9612 infected in CD-1 ICR mouse using 3.7 X 10^4 CFU inoculum; type: functional
Staphylococcus aureus [13] = assay: Antimicrobial activity against methicillin-susceptible Staphylococcus aureus 15 infected in CD-1 ICR mouse using 2.5 X 10^5 CFU inoculum; type: functional
Enterococcus faecalis [14] = assay: Antimicrobial activity against Enterococcus faecalis HH22 infected in CD-1 ICR mouse using 1.8 X 10^8 inoculum; type: functional
Escherichia coli [15] = assay: Antimicrobial activity against Escherichia coli 9612 infected in CD-1 ICR mouse assessed as decrease in bacterial load in kidney at 2.59 mg/kg, sc after 72 hrs (reference value: 4.45 +/- 0.37 log10CFU/g); type: functional; details: route subcutaneous
Escherichia coli [16] = assay: Antimicrobial activity against Escherichia coli 9612 infected in CD-1 ICR mouse assessed as decrease in bacterial load in kidney at 12 mg/kg, sc after 72 hrs (reference value: 4.45 +/- 0.37 log10CFU/g); type: functional; details: route subcutaneous
Staphylococcus aureus [17] = assay: Antimicrobial activity against methicillin-susceptible Staphylococcus aureus ATCC 29213 using 1.5 X 10^5 CFU inoculum by agar dilution method; type: functional
Escherichia coli [18] = assay: microbe, parasite or virus in culture; details: ATCC 25922
Description: Antimicrobial activity against Escherichia coli ATCC 25922 using 1 X 10^5 CFU inoculum by agar dilution method

Klebsiella pneumoniae [19] = assay: Antimicrobial activity against Klebsiella pneumoniae 967 infected in CD-1 ICR mouse using 2.6 X 10^5 CFU inoculum; type: functional
Escherichia coli [20] = assay: Antimicrobial activity against Escherichia coli 9612 using 3.7 X 10^4 CFU inoculum by agar dilution method; type: functional
Escherichia coli [21] = assay: Antimicrobial activity against Escherichia coli 9612 infected in CD-1 ICR mouse assessed as decrease in bacterial load in kidney at 7.2 mg/kg, sc after 72 hrs (reference value: 4.45 +/- 0.37 log10CFU/g); type: functional; details: route subcutaneous
Enterococcus faecalis [22] = assay: Antimicrobial activity against Enterococcus faecalis HH22 using 1.8 X 10^8 by agar dilution method; type: functional
Klebsiella pneumoniae [23] = assay: microbe, parasite or virus in culture; details: 935
Description: Antimicrobial activity against Klebsiella pneumoniae 935 using 3 X 10^5 CFU inoculum by agar dilution method

Escherichia coli [24] = assay: Antimicrobial activity against Escherichia coli 9612 infected in new Zealand white rabbit with skin burn injury assessed as decrease in bacterial load in burn wound at 0.5 mg/ml after 24 hrs (reference value: 8.57 +/- 0.35 log10CFU/g); type: functional
Escherichia coli [25] = assay: Antimicrobial activity against Escherichia coli 9612 infected in CD-1 ICR mouse assessed as decrease in bacterial load in kidney at 20 mg/kg, sc after 72 hrs (reference value: 4.45 +/- 0.37 log10CFU/g); type: functional; details: route subcutaneous
Enterococcus faecalis [26] = assay: Antimicrobial activity against Enterococcus faecalis ATCC 29212 infected in CD-1 ICR mouse using 2.8 X 10^7 inoculum; type: functional
Escherichia coli [27] = assay: microbe, parasite or virus in culture; details: 1515
Description: Antimicrobial activity against Escherichia coli 1515 using 2.4 X 10^6 CFU inoculum by agar dilution method

Molecule	ED50 (Klebsiella pneumoniae [1]) [mg/kg]	ED50 (Escherichia coli [2]) [mg/kg]	MIC (Klebsiella pneumoniae [4]) [µg/mL]	MIC (Enterococcus faecalis [5]) [µg/mL]	ED50 (Staphylococcus aureus [6]) [mg/kg]	ED50 (Staphylococcus aureus [7]) [mg/kg]	ED50 (Escherichia coli [8]) [mg/kg]	MIC (Staphylococcus aureus [9]) [µg/mL]	MIC (Staphylococcus aureus [11]) [µg/mL]	ED50 (Escherichia coli [12]) [mg/kg]	ED50 (Staphylococcus aureus [13]) [mg/kg]	ED50 (Enterococcus faecalis [14]) [mg/kg]	MIC (Staphylococcus aureus [17]) [µg/mL]	MIC (Escherichia coli [18]) [µg/mL]	ED50 (Klebsiella pneumoniae [19]) [mg/kg]	MIC (Escherichia coli [20]) [µg/mL]	MIC (Enterococcus faecalis [22]) [µg/mL]	MIC (Klebsiella pneumoniae [23]) [µg/mL]	ED50 (Enterococcus faecalis [26]) [mg/kg]	MIC (Escherichia coli [27]) [µg/mL]	also measured
CCN[C@@H]1C[C@H](N)[C@@H](O[C@@H]2OC(C(C)N)=CC[C@@H]2N)[C@H](O)[C@H]1O[C@H]1OC[C@](C)(O)[C@H](NC)[C@H]1O (stereo partly drawn) [VERTILMICIN]	0.29	0.63	0.25 (≈ 0.511 µM)	8 (≈ 16.3 µM)	0.99	0.25	0.82	0.25 (≈ 0.511 µM)	0.125 (≈ 0.255 µM)	0.67	0.7	7.11	0.125 (≈ 0.255 µM)	0.5 (≈ 1.02 µM)	0.18	0.5 (≈ 1.02 µM)	8 (≈ 16.3 µM)	0.5 (≈ 1.02 µM)	4.35	0.5 (≈ 1.02 µM)	log10CFU/g (Escherichia coli [3]): 3.22; log10CFU/g (Escherichia coli [10]): 5; log10CFU/g (Escherichia coli [15]): 3.32; log10CFU/g (Escherichia coli [16]): 3.11; log10CFU/g (Escherichia coli [21]): 3.07; log10CFU/g (Escherichia coli [24]): 6.33; log10CFU/g (Escherichia coli [25]): 2.36
GENTAMICIN	0.68	1.11		8	2.84	0.6	1.5	0.25	0.125	7.88	0.61	> 100	0.125		0.32	8	> 128		17.5		
CN[C@@H]1[C@@H](O)[C@@H](O[C@@H]2[C@@H](O)[C@H](O[C@@H]3OC(C(C)N)=CC[C@@H]3N)[C@@H](N)C[C@H]2N)OC[C@]1(C)O (stereo partly drawn) [VERDAMICIN]	0.29	0.49	0.25 (≈ 0.542 µM)	8 (≈ 17.3 µM)	1.33	0.23	1.09	0.25 (≈ 0.542 µM)	0.125 (≈ 0.271 µM)	2.66	0.66	> 100	0.125 (≈ 0.271 µM)	0.5 (≈ 1.08 µM)	0.16	4 (≈ 8.67 µM)	> 128	0.5 (≈ 1.08 µM)	5.24	0.5 (≈ 1.08 µM)	
CCN[C@@H]1C[C@H](N)[C@@H](O[C@H]2OC(CN)=CC[C@H]2N)[C@H](O)[C@H]1O[C@H]1OC[C@](C)(O)[C@H](NC)[C@H]1O [NETILMICIN]	0.33	0.46	0.5 (≈ 1.05 µM)	8 (≈ 16.8 µM)	0.88	0.26	0.77	0.25 (≈ 0.526 µM)	0.125 (≈ 0.263 µM)	0.63	0.49	6.56	0.125 (≈ 0.263 µM)	0.5 (≈ 1.05 µM)	0.17	0.5 (≈ 1.05 µM)	8 (≈ 16.8 µM)	0.5 (≈ 1.05 µM)	3.44	0.5 (≈ 1.05 µM)	
